The results in this text go back to patent US20060073159A1, “Human anti-cancer immunotherapy” (The Trustees of the University of Pennsylvania, priority 2004, published 2006).

The subject of assay [1] is T2 cells loaded with cognate peptide. The assay is described as follows: lysis of peptide-loaded T2 cells by peptide-specific CTL. The class given is cell-based, human. As to conditions: not negative control viral peptide. As to the method:
The following assay is adapted from Fischer et al. (2002, J. Immunol. Methods 259:159-169). Briefly, T2 cells are labeled as follows. T2 cells are plated at 1×10^6/mL in serum-free RPMI-1640×1 mL in 24 well plate. 2.5 ug/mL B2M is added to the cells. 1 ug/mL peptide (Tax or Flu) is added to the mixture. The cells are incubate overnight at 37° C. in a CO2 incubator. The cells are then washed once in RPMI-1640 (serum free). The supernatant is removed; leaving about 25 ul supernatant on the pellet. The remaining cells in suspension are agitated to mix with the supernatant. 1 mL of diluent C is added to resuspend the cells.
Immediately prior to staining, 4×10)(−6)M PKH26 dye is prepared at RT (1:250 dilution of stock; 4 ul of 996 ul diluent C). 1 mL of PKH26 dye is immediately added to 1 mL of cells. The sample is immediatedly mixed by gentle pipetting. The sample is incubate at RT for about 2-5 minutes, with periodical swirling of the tube to insure mixing. The staining reaction is stopped by adding 2 mL of serum in a compatible protein solution. This solution is incubated for 1 minute to stop the staining reaction. The sample is then diluted with 4 mL of complete media (T cell media). The cells are washed two to three times with T cell media.
To assay for the T2 cells, targets at 2e5/mL in IMDM 10% huSerum is prepared. Effectors are prepared at 2×10^6/mL and 2×10^5/mL in IMDM 10% huSerum. […]

Assay [2] concerns HoxA9+ and Meis1+ leukemia cell lines. Nature of the assay: lysis of leukemia cell lines by peptide-specific CTL. The class given is cell-based, human. To be noted: antigen-dependent, MHC-restricted; HLA-A2-negative or antigen-negative leukemia cells not killed. From the text:
To determine whether these peptides could trigger the expansion of specific CTL, CD8+ T cells from normal HLA-A2+ donors were stimulated in vitro with autologous peptide-loaded antigen presenting cells, using a system previously described (Vonderheide et al., 1999, Immunity 10:673-679). […] Moreover, both Hox-TLD and Mei-AIY specific CTL were able to lyse HoxA9+ and Meis1+leukemia cell lines in an antigen-dependent, MHC-restricted fashion.

The target in assay [3] is T1, HLA-A2 (Homo sapiens, UniProt P04439, D140Y/D185E/D98H/E176V/E277Q/G131W/G231S/I119V/I121R/I166T/I218V/L300P/L318F/N151K/N90K/P208A/P217A/Q86G/Q94H/R138H/R169H/T345S).
T1 construct: T2 cells are prepared to a concentration of 1×10^6 cells/mL; endogenous in cells; host or cells: T2 cells
The assay is described as follows: flow-based T2 binding assay (HLA-A2 binding and MHC complex stability). To be noted: 6 epitopes from each gene product compared, T2 cells. As to the method: T2 cells are harvested as described elsewhere herin. T2 cells are wash three times in serum free media. T2 cells are prepared to a concentration of 1×10^6 cells/mL. 1 mL of T2 cells is added to each well of 24 well plate. B2M (1 mg/mL) is added to the mixture to give a final concentration of 2.5 ug/mL. Appropriate control or peptide at 50 ug/mL is added to each wll. The cells are incubated in an incubator at 37° C. For a positive control peptide, RT-POL vs flu or tax can be used.
Next day, cells are harvested and washed three times in serum-free RPMI. The supernatant is removed and the cells are resuspend in 800 ul of serum free IMDM. The cells are plated (400 ul of cells) to one well of a 48 well plate. […]
The fluorescence index (FI) can be calculated from the mean fluorescence intensity as follows: FI=(MFIpeptide/MFIno peptide)−1 The complex's half-life can be calculated using SigmaPlot regression analysis and the following formula: y=yo+a*e^bx t1/2=1/b*ln((y−yo)/a) with yo=Fimax/2 Conjugation of Monomers to Generate Tetramers
HLA-A2-restricted epitopes derived from HoxA9 and Meis I were predicted using two computational algorithms, and 6 epitopes from each gene product with the highest predicted likelihood of binding to HLA-A2 were evaluated empirically using a flow-based T2 assay, as described (Vonderheide et al., 1999, Immunity 10:673-679). […]

For assay [4], the target named is T2, human HLA-A*0201 (human).
T2 construct: HLA-A2 on TAP-deficient T2 cells; Surface stabilisation by peptide was read with anti-HLA-A2-FITC by flow cytometry; also called HLA-A2; A2
Nature of the assay: flow-based T2 assay (HLA-A2 stabilisation on peptide-pulsed T2 cells, anti-HLA-A2-FITC). As to the method: Next day, cells are harvested and washed three times in serum-free RPMI. The supernatant is removed and the cells are resuspend in 800 ul of serum free IMDM. The cells are plated (400 ul of cells) to one well of a 48 well plate. The cells are incubate for an additional 6 hours in an incubator at 37° C. The remaining cells are saved and place on ice for immediate analysis. The cells are stained for anti-HLA-A2-FITC and for IgG-FITC. The cells are anaylized on a flow cytometer.
HLA-A2-restricted epitopes derived from HoxA9 and Meis I were predicted using two computational algorithms, and 6 epitopes from each gene product with the highest predicted likelihood of binding to HLA-A2 were evaluated empirically using a flow-based T2 assay, as described (Vonderheide et al., 1999, Immunity 10:673-679). […] The same cells in normal HLA-A2+ donors were undetectable.

For “Hox-TLD: epitope of the antigen HOX-A9, SEQ ID NO:3 (TLDTHTLSL; human-derived peptide)”, in assay [1], the “lysis of T2 cells loaded with cognate peptide by specific CTL” value was “able to lyse T2 cells loaded with cognate peptide”. Moreover, in assay [2], the “lysis of HoxA9+ and Meis1+ leukemia cell lines by specific CTL” value was “able to lyse”. Further, in assay [3], the “binding and MHC complex stability” value was “best binding and MHC complex stability”.
Consider “Mei-AIY: epitope of the antigen Meis1, SEQ ID NO:11 (AIYGHPLFPL; human-derived peptide)”, for which the “lysis of T2 cells loaded with cognate peptide by specific CTL” value in assay [1] is recorded as “able to lyse T2 cells loaded with cognate peptide”. Further, the “lysis of HoxA9+ and Meis1+ leukemia cell lines by specific CTL” value in assay [2] is given as “able to lyse”. Also, in assay [3], the “binding and MHC complex stability” value is “best binding and MHC complex stability”.

B1: Hox-TLD (peptide)
peptide: TLDTHTLSL
Regarding B1, in assay [4], the binding result was “binds”.

B2: Mei-AIY (peptide)
peptide: AIYGHPLFPL
Regarding B2, the binding result in assay [4] is recorded as “binds”.
